From patent US20180002692A1, “Sequence Specific and Organism Specific Antimicrobials and Related Materials and Methods” (priority 2015, published 2018)
“Also recorded” adds a separate entry of the source. Where two headings read alike, the source gives them in different places.

How the values were obtained:
[1] = system: ampicillin-resistant E. coli; assay type: cell-based
Protocol: pAKgfp1 plasmid was obtained from Addgene for TEM-1 β-lactamase resistance gene, bla (43). The plasmid was cloned into chemically competent Zymo DH5a E. coli (Expressys). Untransformed Zymo DH5a was used as a control strain for β-lactamase activity assays. Liquid cultures were grown in 2% LB, incubated at 37° C. and shaken at 225 rpm. Solid cultures were grown on 2% LB broth, 1.5% agar at 37° C. Ampicillin sodium salt (Sigma Aldrich) was used for selection at a concentration of 300 μg/mL for MIC and CFU analysis. Optical density measurements were taken using a Tecan GENios at 562 nm with a bandwidth of 35 nm. All bacterial freezer stocks were stored in 40% glycerol at −80° C.

bla mRNA = bla mRNA expression by qPCR; assay type: cell-based, E. coli; conditions: 5 μM α-TSS, 25 μM α-RBS, 25 μM α-YUNR; absence of ampicillin
Protocol: Three biological replicates were used for bla expression analysis. Cultures were pretreated overnight in respective PNA and liquid media in the absence of ampicillin and collected for RNA at 16 hr.
50 μL of the respective culture was added to 100 μL of Bacteria RNAprotect (Qiagen) and incubated at room temperature for 5 min. The cells were then pelleted via centrifugation for 3 min at 10,000 rpm, the supernatant removed, and samples were flash frozen in an ethanol dry ice bath and stored at −80° C. Precautions were taken to protect RNA from RNases using RNaseZap (Life Technologies). RNA was extracted from frozen cell pellets using GeneJET RNA purification kit (Thermo Scientific) and 350-600 ng was treated with Turbo DNA-free (Ambion). 50 ng cDNA was synthesized using Maxima Universal First Stand cDNA synthesis kit (Thermo Scientific). 1.5 ng of cDNA was used for qPCR with Maxima SYBR Green qPCR master mix with ROX normalization (Thermo Scientific) using Illumina Eco qPCR system. Transcript levels were analyzed using the ΔCq method with respect to moderately expressed housekeeping gene cysG (43). Transcript levels were further analyzed for the mutant populations using the ΔΔCq method with respect to the no treatment populations.

[2] = system: ampicillin-resistant E. coli; assay type: cell-based; remark: listed apart in the source
Protocol: Three biological replicates were selected from colonies and pretreated for 16 hr with respective α-TSS concentration in liquid media. After pretreatment, the cultures were diluted 1:100,000 into liquid media with respective concentration of ampicillin and α-TSS and allowed to grow with shaking at 37° C. for 24 hr. The final OD at 562 nm at 24 hr was used for data analysis.
Data fitting analysis was performed in Origin Pro 6.1. Data was fit to a sigmoidal/decay Boltzman function.
The degree of re-sensitization exerted by α-TSS in presence of varying concentrations of ampicillin above and below the MIC determined for α-TSS was then evaluated.

[3] = system: ampicillin-resistant E. coli; test: Emergence of tolerance to α-TSS/ampicillin combination; assay type: cell-based; conditions: 35 cultures
Protocol: Ampicillin-resistant cultures were pretreated overnight with 2.5 μM α-TSS and then subjected to selection pressure of 2.5 μM α-TSS and 300 μg/mL of ampicillin for 24 hours. […] Mutant populations 1 and 2 were diluted and re-grown under selection pressure for another 24 hours.
Changes in expression of a set of key stress response genes was examined to identify the resistance mechanism involved in obtaining resistance to α-TSS. Thirteen representative stress response genes were measured by qPCR (FIG. 5B).

[4] = system: ampicillin-resistant E. coli; test: Colony forming unit analysis with α-TSS and ampicillin; conditions: 1 μM α-TSS (below MIC), 300 μg/mL ampicillin
Protocol: Cultures were sampled at respective time points and serial dilutions were performed ranging from 10^2-10^10. For ampicillin sensitivity experiment, dilutions were plated on solid media and 300 μg/mL ampicillin sodium salt and grown at 37° C. for 24 hr followed by cell counting. For the other experiments, cultures were serially diluted into PBS and plated onto 2% agar and 1.5% agar. Plates were incubated for 16-24 h at 37° C. and counted for visible colonies.
Overnight cultures of ampicillin-resistant E. coli were pre-treated with different concentrations of α-TSS, followed by treatment with ampicillin.

MG1655 E. coli [5] = test: Growth (optical density, lag time) of MG1655; assay type: cell-based; conditions: 10 μM antisense inhibitor
Protocol: MG1655 E. coli cultures were started from individual colonies from 2% LB and 1.5% agar into M9 media. They were diluted 1:10,000 from overnight culture into fresh M9 with respective treatment and grown at 37° C. with 225 rpm shaking. Clinical strains were started from individual colonies grown on cation adjusted Mueller Hinton Broth with 1.5% agar into liquid CAMHB. These were diluted 1:10,000 into CAMHB medium with respective treatment and grown at 37° C. with 225 rpm shaking. Optical density measurements were taking using a Tecan GENios at 562 nm with a bandwidth of 35 nm. Lag time was calculated using Growth Rates Made Easy (Hall et al. Mol. Biol. Evol. 31(1):232-238). […]

MG1655 E. coli [6] = test: Colony forming unit analysis of MG1655; assay type: cell-based; conditions: 10 μM, 2 hours; listed as A-rpsD
Description: The effect of α-lexA, α-fnrS, and α-rpsD on cell viability using a colony forming unit analysis was then determine.

[7] = system: MDR Salmonella typhimurium; test: Growth of clinical strain MDR S. typhimurium; assay type: cell-based; conditions: 10 μM
Protocol: (§1) MG1655 E. coli cultures were started from individual colonies from 2% LB and 1.5% agar into M9 media. They were diluted 1:10,000 from overnight culture into fresh M9 with respective treatment and grown at 37° C. with 225 rpm shaking. Clinical strains were started from individual colonies grown on cation adjusted Mueller Hinton Broth with 1.5% agar into liquid CAMHB. These were diluted 1:10,000 into CAMHB medium with respective treatment and grown at 37° C. with 225 rpm shaking. Optical density measurements were taking using a Tecan GENios at 562 nm with a bandwidth of 35 nm. Lag time was calculated using Growth Rates Made Easy (Hall et al. Mol. Biol. Evol. 31(1):232-238).
(§2) MDR E. coli was inhibited by four of the six oligomers tested (α-folC, α-ffh, α-lexA, and α-rpsD), extended-spectrum beta-lactamase (ESBL) K. pneumoniae was inhibited by two of the antisense oligomers (α-fnrS and α-rpsD), and New Delhi metallo-β-lactamase (NDM-1) K. pneumoniae was inhibited by one of the oligomers tested (α-rpsD) (FIGS. 15-16).

CRE E. coli = test: Growth of clinical strain CRE E. coli; assay type: cell-based, Escherichia coli; conditions: 10 μM
Protocol: as §1, §2

MDR E. coli = test: Growth of clinical strain MDR E. coli; assay type: cell-based; conditions: 10 μM
Protocol: as §1, §2

ESBL K. pneumoniae = test: Growth of clinical strain ESBL K. pneumoniae; assay type: cell-based, Klebsiella pneumoniae; conditions: 10 μM
Protocol: as §1, §2

NDM-1 K. pneumoniae = test: Growth of clinical strain NDM-1 K. pneumoniae; assay type: cell-based, Klebsiella pneumoniae; conditions: 10 μM
Protocol: as §1, §2

[8] = 0.5 μM α-TSS (below MIC), 24 hr

KFFKFFKFFK-O-tactcatactct (antisense TACTCATACTCT; PNA, O-linker to (KFF)3K peptide, chemistry not fully specified) [α-TSS]
re-sensitization of drug resistant E. coli to ampicillin [1]: re-sensitized drug resistant E. coli to ampicillin; also recorded: re-sensitization of drug resistant E. coli to ampicillin; also recorded: re-sensitize | growth in absence of ampicillin (toxicity of antisense agent) ([1]; absence of ampicillin): non-toxic effect; also recorded: No inhibition | growth of drug-resistant E. coli in presence of ampicillin ([1]; antisense oligomer plus 300 μg/mL ampicillin): hindered cell growth; also recorded: impact growth; also recorded: significant antibiotic effect | minimum inhibitory concentration (MIC) ([1]; in presence of 300 μg/mL ampicillin, after overnight pretreatment with antisense agent): 2.5 µM | bla mRNA expression (bla mRNA): did not affect bla transcript levels; also recorded: did not significantly reduce bla expression | slope of the transition from resistant to sensitive (Boltzman fit) ([2]; 0.5 μM α-TSS (below MIC)): −0.0038 ODmLμg^−1 | ampicillin concentration up to which growth is unhindered [2, 8]: 250 µg/mL | ampicillin concentration with no growth [2, 8]: 550 µg/mL | decrease in ampicillin MIC compared to the no treatment cultures ([2]; 5 μM α-TSS (above MIC)): greater than 20 fold | increase in negative slope compared to below MIC and no treatment ([2]; 5 μM α-TSS (above MIC)): Greater than two fold | slope of the transition from resistant to sensitive (Boltzman fit) ([2]; 5 μM α-TSS (above MIC)): −0.010 OD/μg/mL | lowest ampicillin concentration showing a decrease in growth ([2]; 5 μM α-TSS (above MIC), 24 hr): 25 µg/mL | shift in ampicillin sensitivity ([2]; α-TSS at 0.5 μM (below MIC) and 5 μM (above MIC)): leftward shift in ampicillin sensitivity | share of independent cultures showing emergence of tolerance ([3]; 2.5 μM α-TSS (MIC)/β-lactam): less than 5% | independent cultures showing emergence of tolerance ([3]; 5 μM α-TSS/ampicillin): None | colony forming units over time [4]: increased with time

KFFKFFKFFK-O-ttgccattttct (antisense TTGCCATTTTCT; all peptide nucleic acid (PNA); (KFF)3K cell-penetrating peptide joined to the N-terminus through an O-linker) [α-rpsD, 12-mer antisense PNA centered on start codon of rpsD, O-linker to (KFF)3K]
lag time (MG1655 E. coli [5]): significantly increased lag time | growth of MG1655 E. coli cultures (MG1655 E. coli [5]; 24 h): completely inhibited; also recorded: completely prevented cell growth; also recorded: Complete inhibition | colony forming units per milliliter after two hours of treatment (MG1655 E. coli [6]): zero | growth inhibition of MDR S. typhimurium [7]: inhibited | growth inhibition of CRE E. coli (CRE E. coli): completely prevented growth; also recorded: inhibited | growth inhibition of MDR E. coli (MDR E. coli): inhibited | growth inhibition of ESBL K. pneumoniae (ESBL K. pneumoniae): inhibited | growth inhibition of NDM-1 K. pneumoniae (NDM-1 K. pneumoniae): inhibited
